Results as given in patent publication US20150272959A1, “SMALL MOLECULES AS ANTI-HIV AGENTS THAT DISRUPT VIF SELF-ASSOCIATION AND METHODS OF USE THEREOF” (OYAGEN, INC., priority 2012, published 2015).
Several values for one entry are separate records, joined by “and”; a condition that tells them apart may be missing. Identical values can stand only once. Like-named read-outs stand apart in the source and are kept apart here.

Columns and labels:
[1] = system: pseudotyped HIV; type: cell-based; conditions: for efficacy: all concentrations tested below 15 μM; for toxicity: concentrations higher than 15 μM
From the text: This figure is a visual representation of how the single cycle infectivity experiments were done. They are in 6 well format in order to obtain enough virus to do viral particle purifications for western blot detection of A3G in the viral particle. […] The wild type HIV proviral vector codes for all HIV genes except nef (replaced with EGFP) and env. […] Alternatively, in the absence of A3G, both wild type and ΔVif viruses should have high infectivity.
[…]. Viral load was then normalized with a p24 ELISA (Perkin Elmer).
The infections utilized TZM-bl reporter cells that contain stably integrated luciferase that is driven by the HIV-LTR promoter, therefore luciferase is expressed upon successful HIV infection. Triplicate infections in 96-well plates at 10,000 cells/well with 500 pg p24/well proceeded for 48 hours before the addition of SteadyGlo™ Reagent (Promega) to each well for 30 minutes. Luminescence was measured as a quantitative metric for changes in infectivity with each compound as compared to controls, in which relative luminescence units (RLU) with no chemistry are set to 100%.
This figure is intended to highlight where in the experimental method negative results occurred. Although all compounds to this point in screening have shown little to no toxicity in the Primary and Secondary Screens, when cells are challenged with viral production they are more sensitive to toxicity from chemistries since cells have to combat viral proteins overtaking of cellular pathways and any adverse effects from the chemistries. […] If the producer cells are healthy and make enough virus for infectivity testing there are three possible outcomes and two are undesirable for any chemistry to go forward into probe development. […] This is best represented as a differential between infectivity in the presence of Vif and A3G vs the absence of Vif and A3G.
Each compound was tested at multiple concentrations in separate infectivity assays. The concentrations are listed on the top, followed by the infectivity in relation to the no chemistry control for both + and −Vif and A3G conditions, and the large number on the bottom is the differential between infectivity of +Vif virus and with A3G cotransfected compared to −Vif virus without A3G (purple numbers are for good values and blue numbers are for weak values). […] For compound 9 although the drop in infectivity compared to the no chemistries controls are not as low as for compounds 21 and 24 for +Vif and A3G infectivities, there is an increase in the −Vif and A3G infectivities compared to control making the differential between the +/−Vif and A3G virus lower than 24 and 21 at 0.33 and 0.44 in Dry Powder Infectivities B&C. Note that normalization for the viral load with p24 only accounts for total viral particles in the media, but is unable to discriminate between mature and immature virions. If a chemistry has an effect on % of mature virions compared to the no chemistry control there could be an impact on viral infectivity values compared to control. Therefore, although it is crucial to see lower infectivity than the no chemistry control the more critical number is the differential between +/−Vif and A3G, because both those virial preps contain the chemistry and would have similar effects on the viral populations going into the infectivity assay. On the other hand, compound 21 has +Vif and A3G infectivity at 56% at 15 μM but the −Vif and A3G infectivity is only at 63% making the differential only 0.88.

[2] = system: Vif-dependent A3G degradation; assay: Vif-dependent A3G-mCherry degradation assay in 293T cells; type: cell-based; conditions: single dose 8 μM
Method: A3G-mCherry is stably expressed in 293T cells under puromycin selection. 50 ng of Vif was transiently transfected into the cells in 384-well format with Turbofect. 4 hours after transfection the chemistries were added to cells in a range from (0.5-16 μM). 24 hours after chemistries were added the mCherry signal was read on a Biotek Synergy 4 plate reader. The signal from cells plated but not transfected with Vif was averaged and set at 100% (left image), and cells transfected with Vif and treated with DMSO only were averaged and set at 0% (right image). A chemistry that inhibits Vif's ability to chaperone A3G to the proteasomal degradation pathway would result in an increased mCherry signal compared to the DMSO only control, and any signal that is much higher than the no Vif positive control is likely to be due to autofluorescence from the chemistry itself.
To simplify the numbering the compounds were numbered from 1 to 32 in the same order as plated in the original vials and listed on the original Dry Powder list sent with the vials by the Broad. […] The first compound is 02-16, which is the lead from the previous OyaGen screen mentioned above with strong A3G dependency in live virus tests and the last data set are the DMSO controls that were averaged out to set the 0% mark. […]

[3] = system: A3G in the viral particle; assay: A3G in the viral particle, western blot A3G:p24 ratio (FIG. 18); type: cell-based, HIV; conditions: for increase of A3G:p24 ratio over the negative control: parallel to Dry Powder Infectivities B & C, 30 ng p24
Method: Parallel to Dry Powder Infectivities B & C, viral particles (30 ng p24) were pelleted through a 20% sucrose cushion, resolved by SDS-PAGE and western blotted for VS-tagged A3G and p24. The yield of A3G relative to p24 (as a virus loading control) was quantified by scanning densitometry to validate the antiviral mechanism. The first two lanes are the −Vif virus with A3G (positive control) and the +Vif virus with A3G (negative control). The A3G:p24 Ratio for the negative control was set to 1 (Ratios listed under the westerns). Chemistry 24 had 5 and 15 fold increases over the negative control. On the other hand, chemistry 9 had increases of 55 and 76-fold over the control, both higher than the positive control at 48-fold above the negative control. However, the positive control has lower overall infectivity and differentials than 9.

[4] = system: A3.01 (+A3G) cells; type: cell-based
From the text: (§1) All the screens to this point utilized 293T cells and the Brd. […] The rationale is to set a CC50 standard in T cells to measure against for medicinal chemistry derived compounds created from these scaffolds going forward. CEMSS (−A3G) and A3.01 (+A3G) were selected, because they are both CEM derived T cell lines that can be used to compare in live virus spreading infections for A3G-dependency.

[5] = system: CEMSS (-A3G) cells; type: cell-based
From the text: as §1

[6] = 15 μM, relative to no chemistry control

Row | SMILES | +/-Vif and A3G differential (in words) [1] | -Vif and A3G infectivities compared to control [1] | antiviral activity [1] | differential between +/-Vif and A3G virus infectivity ([1]; Dry Powder Infectivity B) | differential between +/-Vif and A3G virus infectivity ([1]; Dry Powder Infectivity C) | efficacy [1] | toxicity [1] | DMSO stock test [2] | A3G in the viral particles (in words) [3] | increase of A3G:p24 ratio over the negative control [3] | CC50 [4] | CC50 [5] | differential between +/-Vif and A3G infectivity ([1]; 15 μM) | +Vif and A3G infectivity [1, 6] | -Vif and A3G infectivity [1, 6] | toxic effects ([1]; above 30 μM) | differential between +/-Vif and A3G infectivity ([1]; above 30 μM, Dry Powder infectivity A) | differential between +/-Vif and A3G infectivity ([1]; above 30 μM, Dry Powder infectivity C)
1 | Cc1nnc2ccc(-c3cccc(NS(=O)(=O)c4cc(F)ccc4F)c3)nn12 [Compound 9] | differential between +/−Vif and A3G infectivities | increase | antiviral activity | 0.33 | 0.44 | displayed efficacy | slight toxicity | low | increase in A3G | 55 fold and 76 fold | > 25 µM | > 25 µM | – | – | – | – | – | –
2 | FC(F)(F)c1nnc2c3ccccc3c(Cl)nn12 [Compound 24] | differential between +/−Vif and A3G infectivities | – | antiviral activity | – | – | displayed efficacy | slight toxicity | – | increase in A3G | – | 4.9 µM | 9.7 µM | – | – | – | – | – | –
3 | O=C(NC1(C(F)(F)F)Oc2ccc(Cl)cc2O1)N1CCC2(CC1)OCCO2 (stereo not shown) [Compound 21] | differential between +/−Vif and A3G infectivities | – | antiviral activity | – | – | – | – | – | increase in A3G | 4 fold and 5 fold | > 25 µM | > 25 µM | 0.88 | 56% | 63% | no toxic effects | 0.65 | 0.57
